The record followed here is patent publication US20110053983A1, “(5R)-1,5-DIARYL-4,5-DIHYDRO-1H-PYRAZOLE-3-CARBOXAMIDINE DERIVATIVES HAVING CB1-ANTAGONISTIC ACTIVITY” (priority 2008, published 2011).

One series concerns the target T1, cannabinoid-CB1 receptor (Rattus norvegicus, UniProt P20272).
T1 construct: Male normotensive rats (225-300 g; Harlan, Horst, The Netherlands) were anaesthetized; from tissue; host or cells: whole animal: male normotensive rats (Harlan)
Kind of series: In vivo CB1 receptor antagonism, CP-55,940-induced hypotension test. The settings on record: for activity in the in vivo CB1 mediated (CP-55,940-induced) hypotension test, in words: oral administration; for ED50: po, CP-55,940 (0.1 mg/kg i.v.) induced hypotension, read-out: CB-agonist induced blood pressure rat ID50. As to the method: In vivo cannabinoid-CB1 receptor antagonism was assessed with the CP-55,940-induced hypotension test in rat. Male normotensive rats (225-300 g; Harlan, Horst, The Netherlands) were anaesthetized with pentobarbital (80 mg/kg ip). Blood pressure was measured, via a cannula inserted into the left carotid artery, by means of a Spectramed DTX-plus pressure transducer (Spectramed B. V., Bilthoven, The Netherlands). After amplification by a Nihon Kohden Carrier Amplifier (Type AP-621G; Nihon Kohden B. V., Amsterdam, The Netherlands), the blood pressure signal was registered on a personal computer (Compaq Deskpro 386s), by means of a Po-Ne-Mah data-acquisition program (Po-Ne-Mah Inc., Storrs, USA). Heart rate was derived from the pulsatile pressure signal. All compounds were administered orally as a microsuspension in 1% methylcellulose, 30 minutes before induction of the anesthesia, 60 minutes prior to administration of the CB1 receptor agonist CP-55,940. The injection volume was 10 ml/kg. After haemodynamic stabilization the CB1 receptor agonist CP-55,940 (0.1 mg/kg i. v.) was administered and the hypotensive effect established (Wagner, 2001).

A further series addresses human CB1 receptors (Homo sapiens, UniProt P21554). As to the kind of experiment: In vitro CB1 receptor antagonism, inhibition of WIN 55,212-2-induced [3H]-arachidonic acid release in CHO cells. It counts as cell-based. To be noted: for Kb: read-out: functional activity inhibition AA release [3H]-Arachidonic acid pA2 (converted). As to the method:
In vitro cannabinoid-[…] receptor antagonism was assessed with human CB1 receptors cloned in Chinese hamster ovary (CHO) cells. CHO cells were grown in a Dulbecco's Modified Eagle's medium (DMEM) culture medium, supplemented with 10% heat-inactivated fetal calf serum. Medium was aspirated and replaced by DMEM, without fetal calf serum, but containing [^3H]-arachidonic acid and incubated overnight in a cell culture stove (5% CO2/95% air; 37° C.; water-saturated atmosphere). During this period [^3H]-arachidonic acid was incorporated in membrane phospholipids. On the test day, medium was aspirated and cells were washed three times using 0.5 mL DMEM, containing 0.2% bovine serum albumin (BSA). Stimulation of the CB1 receptor by WIN 55,212-2 lead to activation of PLA2 followed by release of [^3H]-arachidonic acid into the medium. This WIN 55,212-2-induced release was concentration-dependently antagonized by CB1 receptor antagonists.

Series [1] addresses human cannabinoid CB1 receptor (Homo sapiens, UniProt P21554). Kind of series: In vitro affinity for cannabinoid-CB1 receptors, displacement of [3H]CP-55,940. It counts as binding. The procedure: In vitro affinity for cannabinoid-CB1 receptors was determined using membrane preparations of Chinese hamster ovary (CHO) cells wherein the human cannabinoid CB1 receptor was stably transfected in conjunction with [^3H]CP-55,940 as radioligand. After incubation of a freshly prepared cell membrane preparation with the [^3H]-ligand, with or without addition of compounds of the invention, separation of bound and free ligand was performed by filtration over glassfiber filters. Radioactivity on the filter was measured by liquid scintillation counting. The binding data were either obtained by CEREP (128, rue Danton, 92500 Rueil-Malmaison, France) or at Solvay Pharmaceuticals B.V. (C. J. van Houtenlaan 36, 1381 C P Weesp, The Netherlands).

The mark [2] stands for this setting: (5R) versus (5S)-enantiomer (compound 2).
Setting [3] is: h-CB1 receptor in CHO cells, WIN 55,212-2-induced release.
The mark [4] stands for this setting: h-CB1 receptor, CHO cell membranes, read-out: receptor binding displacement [3H]-CP-55,940 pKi (converted).

Molecules are shown by their SMILES. “Also recorded” adds a separate entry of the source. Read-outs that look alike come from different tables or passages of the source.

Sequence of human cannabinoid CB1 receptor (P21554 whole entry): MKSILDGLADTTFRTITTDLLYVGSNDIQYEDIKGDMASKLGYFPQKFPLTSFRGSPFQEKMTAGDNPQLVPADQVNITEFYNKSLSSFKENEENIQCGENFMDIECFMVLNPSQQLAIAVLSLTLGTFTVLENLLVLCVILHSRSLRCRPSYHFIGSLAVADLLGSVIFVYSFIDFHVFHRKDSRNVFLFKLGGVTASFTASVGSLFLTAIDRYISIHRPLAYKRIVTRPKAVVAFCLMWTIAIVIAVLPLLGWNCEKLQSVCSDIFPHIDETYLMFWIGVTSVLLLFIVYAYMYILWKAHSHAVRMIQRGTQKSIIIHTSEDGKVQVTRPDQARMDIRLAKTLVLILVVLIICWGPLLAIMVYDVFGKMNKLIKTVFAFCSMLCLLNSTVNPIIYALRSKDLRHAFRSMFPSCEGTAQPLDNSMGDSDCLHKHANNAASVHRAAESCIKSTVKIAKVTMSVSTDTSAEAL
Sequence of human CB1 receptors (P21554 whole entry): as above
T1 sequence (P20272 whole entry): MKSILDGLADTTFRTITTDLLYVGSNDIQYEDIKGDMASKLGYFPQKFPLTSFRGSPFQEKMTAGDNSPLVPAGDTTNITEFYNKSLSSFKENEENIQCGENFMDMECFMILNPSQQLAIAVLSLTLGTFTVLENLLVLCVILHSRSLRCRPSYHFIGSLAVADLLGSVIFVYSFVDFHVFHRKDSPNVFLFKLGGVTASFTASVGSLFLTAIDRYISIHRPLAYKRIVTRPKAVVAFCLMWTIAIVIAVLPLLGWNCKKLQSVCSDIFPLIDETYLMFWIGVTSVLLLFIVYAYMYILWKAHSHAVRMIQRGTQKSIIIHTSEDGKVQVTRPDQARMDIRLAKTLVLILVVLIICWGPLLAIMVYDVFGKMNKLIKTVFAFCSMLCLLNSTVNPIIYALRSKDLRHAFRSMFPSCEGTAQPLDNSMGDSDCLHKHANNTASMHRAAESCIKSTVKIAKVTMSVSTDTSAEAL

As to `CN/C(=N\S(=O)(=O)N1CCC(F)(F)CC1)C1=NN(c2ccc(Cl)cc2)[C@@H](c2ccccc2)C1` (single isomer, unassigned) [Compound 1], at cannabinoid-CB1 receptor, the “activity in the in vivo CB1 mediated (CP-55,940-induced) hypotension test, in words” value (“activity in the in vivo CB1 mediated” below) was “active; also recorded: potent activities” and the ED50 was 6 mg/kg. Also, the “antagonist potency (pA2) relative to the (5S)-enantiomer” value at human CB1 receptors (setting [2]) is recorded as 40 times. In addition, on human CB1 receptors (setting [3]), the Kb is 1.58 nM. For the same compound, in series [1] (setting [2]), the “affinity for human CB1 receptors relative to the (5S)-enantiomer” value turned out to be 25 fold. The Ki in series [1] (setting [4]) is 10 nM.
Regarding `CN=C(NS(=O)(=O)N1CCC(F)(F)CC1)C1=NN(c2ccc(Cl)cc2)C(c2ccccc2)C1` (racemic) [racemate (1 + 2), N-[(4,4-difluoropiperidin-1-yl)sulfonyl]-N′-methyl-1-(4-chlorophenyl)-5-phenyl-4,5-dihydro-(1H)-pyrazole-3-carboxamidine], on cannabinoid-CB1 receptor, the “activity in the in vivo CB1 mediated” value is “potent activities” and the ED50 came to 9 mg/kg. For the same compound, in series [1] (setting [4]), the Ki is 25.1 nM.
Turning to `CN=C(NS(=O)(=O)N1CCC(F)(F)CC1)C1=NN(c2ccc(Cl)cc2)C(c2ccccc2F)C1` (racemic) [racemate 2, N-[(4,4-difluoropiperidin-1-yl)sulfonyl]-N′-methyl-1-(4-chlorophenyl)-5-(2-fluorophenyl)-4,5-dihydro-(1H)-pyrazole-3-carboxamidine], the melting point lay within 166 to 167 °C.
Regarding `CN/C(=N\S(=O)(=O)N1CCC(F)(F)CC1)C1=NN(c2ccc(Cl)cc2)[C@H](c2ccccc2)C1` (single isomer, unassigned) [Compound 2], on cannabinoid-CB1 receptor, the “activity in the in vivo CB1 mediated” value was “inactive” and the ED50 was more than 30 mg/kg. For the same compound, the Kb on human CB1 receptors (setting [3]) was 79.4 nM. Moreover, the Ki in series [1] (setting [4]) is 251 nM.
As for `CN/C(=N\S(=O)(=O)N1CCCCC1)C1=NN(c2ccc(Cl)cc2)C(c2ccccc2)C1` (racemic) [N-[(piperidin-1-yl)-sulfonyl]-N′-methyl-1-(4-chlorophenyl)-5-phenyl-4,5-dihydro-(1H)-pyrazole-3-carboxamidine, reference compound], the ED50 at cannabinoid-CB1 receptor was more than 30 mg/kg.
For `CN/C(=N\S(=O)(=O)N1CCC(F)CC1)C1=NN(c2ccc(Cl)cc2)[C@@H](c2ccccc2)C1` [Compound 3, 5R-(+)-N-[(4-fluoropiperidin-1-yl)sulfonyl]-N′-methyl-1-(4-chlorophenyl)-5-phenyl-4,5-dihydro-(1H)-pyrazole-3-carboxamidine], the Ki in series [1] (setting [4]) was 15.8 nM.
In the case of `CN/C(=N\S(=O)(=O)N1CCCCC1)C1=NN(c2ccc(Cl)cc2)C(c2ccccc2)C1` (stereo not shown) [EP 1 713 475 Compound 10, reference compound], the ED50 at cannabinoid-CB1 receptor was more than 30 mg/kg.
`CN/C(=N\S(=O)(=O)N1CCC(C(F)(F)F)CC1)C1=NN(c2ccc(Cl)cc2)[C@@H](c2ccccc2)C1` [Compound 4, 5R-(+)-N-[(4-(trifluoromethyl)piperidin-1-yl)sulfonyl]-N′-methyl-1-(4-chlorophenyl)-5-phenyl-4,5-dihydro-(1H)-pyrazole-3-carboxamidine]: the “functional activity inhibition AA release [3H]-Arachidonic acid pA2” value at human CB1 receptors (setting [3]) was 9.5. The Ki in series [1] was 3.16 nM.
